pIC50: −log10 of the molar value.
biological target: Endothelin-converting enzyme 1 (Sus scrofa); test: Compound was evaluated for inhibition of Endothelin-converting enzyme 1 partially purified from porcine primary aortic endothelial cells

pIC50 | Compound
5.27 | O=C(CCC(C(=O)O)c1ccccc1)N[C@@H](CS)Cc1c[nH]c2ccccc12 (stereo partly drawn) [4-[(R)-2-(1H-Indol-3-yl)-1-mercaptomethyl-ethylcarbamoyl]-2-phenyl-butyric acid]
5.28 | O=C(Cc1ccc(-c2ccccc2)cc1)N[C@@H](CS)Cc1cccnc1 [2-Biphenyl-4-yl-N-((R)-1-mercaptomethyl-2-pyridin-3-yl-ethyl)-acetamide]
5.11 | O=C(Cc1ccc(OCc2cccnc2)cc1)N[C@@H](CS)Cc1c[nH]c2ccccc12 [N-[(R)-2-(1H-Indol-3-yl)-1-mercaptomethyl-ethyl]-2-[4-(pyridin-3-ylmethoxy)-phenyl]-acetamide]
5.19 | O=C(N[C@@H](CS)Cc1c[nH]c2ccccc12)C1CCN(C(=O)Cc2ccc(-c3ccccc3)cc2)CC1 [1-(2-Biphenyl-4-yl-acetyl)-piperidine-4-carboxylic acid [(R)-2-(1H-indol-3-yl)-1-mercaptomethyl-ethyl]-amide]
5.28 | O=C(N[C@@H](CS)Cc1c[nH]c2ccccc12)c1cccs1 [Thiophene-2-carboxylic acid [(R)-2-(1H-indol-3-yl)-1-mercaptomethyl-ethyl]-amide]
